Assay in all cases: relative viability (nuclei count vs DMSO), 5 days (fraction); higher = more cells survive
Compound in the assay “YM155 + Phenformin”: COCC[n+]1c2c(n(Cc3cnccn3)c1C)C(=O)c1ccccc1C2=O [YM155] + N=C(N)NC(=N)NCCc1ccccc1 [Phenformin] (partner 250 µM)
A digest of the protocol: (§1)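 Lung cancer cell lines were seeded in 1536-well plates and dosed by pin tool the next day, with either a single drug or a fixed anchor-drug dose combined with five library-drug doses (not always all listed) spaced in √10 steps. Five days later, one step fixed the cells and stained their nuclei (final 0.05% Triton X-100, 1% formaldehyde, 1 ug/ml Hoechst), and nuclei were counted on 4× images. Relative viability is the nuclei count in treated wells divided by the count in vehicle wells, and each value is the median of duplicate plates.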

Compound in the assay “Quizartinib + Pemetrexed”: CC(C)(C)c1cc(NC(=O)Nc2ccc(-c3cn4c(n3)sc3cc(OCCN5CCOCC5)ccc34)cc2)no1 [Quizartinib] + Nc1nc2[nH]cc(CCc3ccc(C(=O)N[C@@H](CCC(=O)O)C(=O)O)cc3)c2c(=O)[nH]1 [Pemetrexed] (partner 0.2 µM)
A digest of the protocol:
as §1

Compound in the assay “Quizartinib + Navitoclax”: CC(C)(C)c1cc(NC(=O)Nc2ccc(-c3cn4c(n3)sc3cc(OCCN5CCOCC5)ccc34)cc2)no1 [Quizartinib] + CC1(C)CCC(c2ccc(Cl)cc2)=C(CN2CCN(c3ccc(C(=O)NS(=O)(=O)c4ccc(N[C@H](CCN5CCOCC5)CSc5ccccc5)c(S(=O)(=O)C(F)(F)F)c4)cc3)CC2)C1 [Navitoclax] (partner 0.5 µM)
A digest of the protocol:
as §1

Compound in the assay “Quizartinib + Bortezomib”: CC(C)(C)c1cc(NC(=O)Nc2ccc(-c3cn4c(n3)sc3cc(OCCN5CCOCC5)ccc34)cc2)no1 [Quizartinib] + CC(C)C[C@H](NC(=O)[C@H](Cc1ccccc1)NC(=O)c1cnccn1)B(O)O [Bortezomib] (partner 0.002 µM)
A digest of the protocol:
as §1

5 cell lines from the supplement of paper PMC10307832 can be followed below.

PC-14: the relative viability amounted to 0.485 with YM155 + Phenformin (first compound 0.002 µM); 0.708 with YM155 + Phenformin (first compound 0.006325 µM); 0.668 with YM155 + Phenformin (first compound 0.02 µM); 0.554 with YM155 + Phenformin (first compound 0.06325 µM); 0.134 in the assay with Quizartinib + Pemetrexed (first compound 0.001 µM); 0.143 in the assay with Quizartinib + Pemetrexed (first compound 0.003162 µM). The relative viability with Quizartinib + Pemetrexed (first compound 0.01 µM) amounted to 0.13; with Quizartinib + Pemetrexed (first compound 0.1 µM), 0.162; with Quizartinib + Navitoclax (first compound 0.001 µM), 1; with Quizartinib + Navitoclax (first compound 0.003162 µM), 0.892; with Quizartinib + Navitoclax (first compound 0.01 µM), 1.09; in the assay with Quizartinib + Navitoclax (first compound 0.03162 µM), 0.966. In addition, the relative viability in the assay with Quizartinib + Navitoclax (first compound 0.1 µM) worked out at 0.977; with Quizartinib + Bortezomib (first compound 0.001 µM), 0.768; with Quizartinib + Bortezomib (first compound 0.003162 µM), 0.846; in the assay with Quizartinib + Bortezomib (first compound 0.01 µM), 0.971; with Quizartinib + Bortezomib (first compound 0.03162 µM), 0.826; with Quizartinib + Bortezomib (first compound 0.1 µM) it was 0.644.

As for RERF-LC-KJ, the relative viability was 0.386 with YM155 + Phenformin (first compound 0.002 µM); 0.432 with YM155 + Phenformin (first compound 0.006325 µM); 0.462 with YM155 + Phenformin (first compound 0.02 µM); 0.463 with YM155 + Phenformin (first compound 0.06325 µM); 0.458 with Quizartinib + Pemetrexed (first compound 0.001 µM); 0.493 with Quizartinib + Pemetrexed (first compound 0.003162 µM). Besides, the relative viability came out at 0.48 in the assay with Quizartinib + Pemetrexed (first compound 0.01 µM); 0.457 with Quizartinib + Pemetrexed (first compound 0.03162 µM); 0.492 with Quizartinib + Pemetrexed (first compound 0.1 µM); 0.854 with Quizartinib + Navitoclax (first compound 0.001 µM); 0.699 in the assay with Quizartinib + Navitoclax (first compound 0.003162 µM); 1.08 with Quizartinib + Navitoclax (first compound 0.01 µM). In addition, the relative viability with Quizartinib + Navitoclax (first compound 0.03162 µM) was found to be 0.918; with Quizartinib + Navitoclax (first compound 0.1 µM) it was 0.688; with Quizartinib + Bortezomib (first compound 0.001 µM) it was 1.04; in the assay with Quizartinib + Bortezomib (first compound 0.003162 µM), 1.15; with Quizartinib + Bortezomib (first compound 0.01 µM), 1.26; in the assay with Quizartinib + Bortezomib (first compound 0.03162 µM) it was 1.1. The relative viability with Quizartinib + Bortezomib (first compound 0.1 µM) was 1.06.

For SK-LU-1, the relative viability was 0.487 in the assay with YM155 + Phenformin (first compound 0.002 µM); 0.499 with YM155 + Phenformin (first compound 0.006325 µM); 0.566 in the assay with YM155 + Phenformin (first compound 0.02 µM); 0.588 with YM155 + Phenformin (first compound 0.06325 µM); 0.875 in the assay with Quizartinib + Pemetrexed (first compound 0.001 µM); 0.912 in the assay with Quizartinib + Pemetrexed (first compound 0.003162 µM). For the same cell line, the relative viability with Quizartinib + Pemetrexed (first compound 0.01 µM) came to 1.08; with Quizartinib + Pemetrexed (first compound 0.03162 µM), 0.975; in the assay with Quizartinib + Pemetrexed (first compound 0.1 µM), 0.993; with Quizartinib + Navitoclax (first compound 0.001 µM) it was 0.852; in the assay with Quizartinib + Navitoclax (first compound 0.003162 µM), 0.771; with Quizartinib + Navitoclax (first compound 0.01 µM) it was 0.979. Further, the relative viability is 0.72 with Quizartinib + Navitoclax (first compound 0.03162 µM); 1.07 with Quizartinib + Navitoclax (first compound 0.1 µM); 0.95 with Quizartinib + Bortezomib (first compound 0.001 µM); 1.12 with Quizartinib + Bortezomib (first compound 0.003162 µM); 1.24 with Quizartinib + Bortezomib (first compound 0.01 µM); 0.969 with Quizartinib + Bortezomib (first compound 0.03162 µM). Also, the relative viability in the assay with Quizartinib + Bortezomib (first compound 0.1 µM) was found to be 1.2.

SW 1573: the relative viability came out at 0.365 with YM155 + Phenformin (first compound 0.002 µM); 0.305 with YM155 + Phenformin (first compound 0.006325 µM); 0.394 in the assay with YM155 + Phenformin (first compound 0.02 µM); 0.338 in the assay with YM155 + Phenformin (first compound 0.06325 µM); 0.872 with Quizartinib + Pemetrexed (first compound 0.001 µM); 0.75 with Quizartinib + Pemetrexed (first compound 0.003162 µM). Besides, the relative viability was 0.826 in the assay with Quizartinib + Pemetrexed (first compound 0.01 µM); 0.848 with Quizartinib + Pemetrexed (first compound 0.1 µM); 1.1 in the assay with Quizartinib + Navitoclax (first compound 0.001 µM); 0.864 with Quizartinib + Navitoclax (first compound 0.003162 µM); 0.954 in the assay with Quizartinib + Navitoclax (first compound 0.01 µM); 0.981 with Quizartinib + Navitoclax (first compound 0.03162 µM). In addition, the relative viability worked out at 0.968 in the assay with Quizartinib + Navitoclax (first compound 0.1 µM); 0.71 with Quizartinib + Bortezomib (first compound 0.001 µM); 0.804 with Quizartinib + Bortezomib (first compound 0.003162 µM); 1.24 in the assay with Quizartinib + Bortezomib (first compound 0.01 µM); 0.684 in the assay with Quizartinib + Bortezomib (first compound 0.03162 µM); 1.01 with Quizartinib + Bortezomib (first compound 0.1 µM).

With UMC-11, the relative viability with YM155 + Phenformin (first compound 0.002 µM) came out at 0.3; with YM155 + Phenformin (first compound 0.006325 µM) it was 0.355; with YM155 + Phenformin (first compound 0.02 µM), 0.363; with YM155 + Phenformin (first compound 0.06325 µM) it was 0.328; with Quizartinib + Pemetrexed (first compound 0.001 µM) it was 0.676; in the assay with Quizartinib + Pemetrexed (first compound 0.003162 µM) it was 0.787. Further, the relative viability in the assay with Quizartinib + Pemetrexed (first compound 0.01 µM) is 0.864; in the assay with Quizartinib + Pemetrexed (first compound 0.03162 µM), 0.771; with Quizartinib + Pemetrexed (first compound 0.1 µM) it was 0.818; with Quizartinib + Navitoclax (first compound 0.001 µM), 0.271; with Quizartinib + Navitoclax (first compound 0.003162 µM) it was 0.278; with Quizartinib + Navitoclax (first compound 0.01 µM), 0.364. In addition, the relative viability in the assay with Quizartinib + Navitoclax (first compound 0.03162 µM) was 0.346; with Quizartinib + Navitoclax (first compound 0.1 µM), 0.307; in the assay with Quizartinib + Bortezomib (first compound 0.001 µM) it was 0.242; in the assay with Quizartinib + Bortezomib (first compound 0.003162 µM), 0.852; with Quizartinib + Bortezomib (first compound 0.01 µM), 0.875; with Quizartinib + Bortezomib (first compound 0.03162 µM), 0.769. Besides, the relative viability with Quizartinib + Bortezomib (first compound 0.1 µM) was 0.653.
